From patent publication US5710150A, “Benzazepine derivative, pharmaceutical composition thereof, and intermediate thereof” (Yamanouchi Pharmaceutical Co., Ltd., priority 1993, dated 1998)
Where a name gives a salt, the structure may show the parent alone. Read-outs that look alike come from different tables or passages of the source.

Key:
[1] = target: T1, arginine vasopressin V1 receptor (Rattus norvegicus, UniProt P30560); assay: V1 receptor binding assay ([3H]-Arg-vasopressin, rat liver membrane); settings: for antagonism on V1 receptor (in words): compared with OPC-31260 and OPC-21268; for V1 selectivity (in words): V1 versus V2 receptor binding; for V1 receptor antagonism compared with OPC-21268 (in words): versus OPC-21268
T1 construct: A rat liver membrane sample was prepared; from tissue; host or cells: rat liver membranes
Method: (1) V1 receptor binding assay
A rat liver membrane sample was prepared in accordance with the method of Nakamura et al. (J. Biol. Chem., 258, 9283 (1983)), and [^3 H]-Arg-vasopressin (2 nM, specific activity=75.8 Ci/mmol), 70 μg of the membrane sample and each drug to be tested (10^-8 to 10^-4 M) were incubated at 30° C. for 30 minutes in 250 μl of 100 mM Tris-HCl buffer (pH=8.0) containing 5 mM of magnesium chloride, 1 mM of ethylenediaminetetraacetic acid (EDTA) and 0.1% of bovine serum albumin (BSA). Thereafter, the incubation solution was sucked off using a cell harvester and free ligand and excess buffer were removed by passing the reaction mixture through a glass filter (GF/B), thereby trapping receptor-bound labeled ligand on the glass filter. The glass filter was taken out, thoroughly dried and then mixed with a liquid scintillation cocktail, and the amount of the membrane-bound [^3 H]-vasopressin was measured using a liquid scintillation counter to calculate the inhibition ratio by the following formula. [formula] C1 : amount of [^3 H]-vasopressin bound to the membrane in the coexistence of known amount of each drug to be tested and [^3 H]-vasopressin
C0 : amount of [^3 H]-vasopressin bound to the membrane when the drug to be tested was not added
B1 : amount of [^3 H]-vasopressin bound to the membrane in the presence of excess vasopressin (10^-6 M)
[formula] [L]: concentration of radioactive ligand KD: dissociation constant calculated from Scatchard plot
Negative logarithm of the thus calculated Ki value was used as pKi value.

[2] = target: arginine vasopressin V2 receptor (Oryctolagus cuniculus, UniProt G1TA00); assay: V2 receptor binding assay ([3H]-Arg-vasopressin, rabbit renal medulla membrane); settings: for antagonism on V2 receptor (in words): compared with OPC-31260 and OPC-21268; for Binding activity on arginine vasopressin V2 receptor (pKi): rabbit renal medulla membrane, [3H]-Arg-vasopressin 2 nM
[3] = rat liver membrane, [3H]-Arg-vasopressin 2 nM, 30° C., 30 minutes, pH 8.0, read-out: Binding activity on arginine vasopressin V1 receptor (pKi) (converted)

arginine vasopressin V2 receptor, sequence (G1TA00 78-446): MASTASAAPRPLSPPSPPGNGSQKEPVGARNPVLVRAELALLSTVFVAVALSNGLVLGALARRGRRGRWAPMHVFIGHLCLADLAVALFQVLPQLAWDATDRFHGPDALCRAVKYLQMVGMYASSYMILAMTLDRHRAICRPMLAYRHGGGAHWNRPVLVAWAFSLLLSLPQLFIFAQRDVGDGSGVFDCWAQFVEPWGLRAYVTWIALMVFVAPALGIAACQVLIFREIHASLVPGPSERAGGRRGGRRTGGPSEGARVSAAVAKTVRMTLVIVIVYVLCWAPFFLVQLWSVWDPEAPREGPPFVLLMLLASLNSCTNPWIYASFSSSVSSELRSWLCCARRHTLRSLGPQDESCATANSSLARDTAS
T1 sequence (P30560 whole entry): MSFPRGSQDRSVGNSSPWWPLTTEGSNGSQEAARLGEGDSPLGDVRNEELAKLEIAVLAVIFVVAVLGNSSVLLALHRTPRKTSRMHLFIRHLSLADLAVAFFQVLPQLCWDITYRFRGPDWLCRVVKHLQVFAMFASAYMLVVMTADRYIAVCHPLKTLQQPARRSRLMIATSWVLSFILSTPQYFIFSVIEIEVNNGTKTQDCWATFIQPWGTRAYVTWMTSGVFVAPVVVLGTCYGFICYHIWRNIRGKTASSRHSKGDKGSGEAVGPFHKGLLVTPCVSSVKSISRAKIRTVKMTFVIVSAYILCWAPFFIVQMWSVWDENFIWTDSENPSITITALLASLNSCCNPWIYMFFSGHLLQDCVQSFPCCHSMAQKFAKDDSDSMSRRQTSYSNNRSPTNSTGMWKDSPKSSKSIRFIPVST

Structure (SMILES) | antagonism on V1 receptor (in words) [1] | Ki [1, 3] [pM] | antagonism on V2 receptor (in words) [2] | Binding activity on arginine vasopressin V2 receptor (pKi) [2] | Ki [1] [pM] | V1 selectivity (in words) [1] | V1 receptor antagonism compared with OPC-21268 (in words) [1]
Cl.O=C(/C=C1/c2ccccc2N(C(=O)c2ccc(NC(=O)c3ccccc3-c3ccccc3)cc2)CCC1(F)F)NC1CN2CCC1CC2 (racemic) [Example 85, (±)-(Z)-4'-[[4,4-difluoro-5-[[N-(3-quinuclidinyl)carbamoyl]methylene]-2,3,4,5-tetrahydro-1H-1-benzazepin-1-yl]carbonyl]-2-phenylbenzanilide hydrochloride] | excellent antagonisms on both V1 and V2 receptors | 95.5 | excellent antagonisms on both V1 and V2 receptors | 9.97 | – | – | –
Cc1ccc(-c2ccccc2C(=O)Nc2ccc(C(=O)N3CCC(F)(F)/C(=C\C#N)c4ccccc43)cc2)cc1 [Compound 22 (a), 4'-[(5-cyanomethylene-4,4-difluoro-2,3,4,5-tetrahydro-1H-1-benzazepin-1-yl)carbonyl]-2-(4methylphenyl)benzanilide] | – | – | – | 8.36 | 9550 | – | –
Cl.O=C(Nc1ccc(C(=O)N2CCC(F)(F)/C(=C\C(=O)N3CCNCC3)c3ccccc32)cc1)c1ccccc1-c1ccccc1 [Example 12, (Z)-4'-[[4,4-difluoro-5-[(1piperazinylcarbonyl)methylene]-2,3,4,5-tetrahydro-1H-1-benzazepin-1-yl]carbonyl]-2-phenylbenzanilide hydrochloride] | excellent antagonisms on both V1 and V2 receptors | 219 | excellent antagonisms on both V1 and V2 receptors | 9.71 | – | – | –
O=C(/C=C1/c2ccccc2N(C(=O)c2ccc(NC(=O)c3ccccc3-c3ccccc3)cc2)CCC1(F)F)NCc1ccccn1 [Example 14, (Z)-4'-[[4,4-difluoro-5-[N-(2-pyridylmethyl)carbonylmethylene]-2,3,4,5-tetrahydro-1H-1-benzazepin-1-yl]carbonyl]-2-phenylbenzanilide hydrochloride] | – | 1230 | – | 9.39 | – | – | –
CN(C)CCN(C)C(=O)/C=C1/c2ccccc2N(C(=O)c2ccc(NC(=O)c3ccccc3-c3ccccc3)cc2)CCC1(F)F [Example 15, (Z)-4'-[4,4-difluoro-5-[[N-(2-dimethylaminoethyl)-N-methylcarbonylmethylene]-2,3,4,5-tetrahydro-1H-1-benzazepin-1-yl]carbonyl]-2-phenylbenzanilide hydrochloride] | excellent antagonisms on both V1 and V2 receptors | 162 | excellent antagonisms on both V1 and V2 receptors | 9.13 | – | – | –
Cc1cccc(-c2ccccc2C(=O)Nc2ccc(C(=O)N3CCC(F)(F)/C(=C\C(=O)N4CCN(C)CC4)c4ccccc43)cc2)c1.Cl [Example 19, (Z)-4'-[[4,4-difluoro-5-(4-methyl-1-piperazinyl)carbonylmethylene-2,3,4,5-tetrahydro-1H-1-benzazepin-1-yl]carbonyl]-2-(3-methylphenyl)benzanilide hydrochloride] | – | 2630 | – | 8.84 | – | – | –
O=C(Nc1ccc(C(=O)N2CCC(F)(F)/C(=C\C(=O)N3CCCNCC3)c3ccccc32)cc1)c1ccccc1-c1ccccc1 [Example 28, (Z)-4'-[[[5-[(hexahydro-1,4-diazepin-1-yl)carbonyl]methylene]-4,4-difluoro-2,3,4,5-tetrahydro-1H-1-benzazepin-1-yl]carbonyl]-2-phenylbenzanilide hydrochloride] | excellent antagonisms on both V1 and V2 receptors | 83.2 | excellent antagonisms on both V1 and V2 receptors | 9.37 | – | – | –
CCc1nccn1-c1ccccc1C(=O)Nc1ccc(C(=O)N2CCC(F)(F)/C(=C\C(=O)OC)c3ccccc32)cc1 [Example 42, methyl (Z)-[1-[4-[2-(2-ethyl-1H-imidazol-1yl)benzoyl]amino]benzoyl-4,4-difluoro-2,3,4,5-tetrahydro-1H-1-benzazepin-5-ylidene]acetate] | – | 1150 | – | 6.33 | – | excellent in V1 selectivity | markedly stronger V1 receptor antagonism than that of OPC-21268
CN1CCN(C/C=C2/c3ccccc3N(C(=O)c3ccc(NC(=O)c4ccccc4-c4ccccc4)cc3)CCC2(F)F)CC1.Cl.Cl [Example 80, (Z)-4'-[[4,4-difluoro-5-[2-(4-methyl-1-piperazinyl)ethylidene]-2,3,4,5-tetrahydro-1H-1-benzazepin-1-yl]carbonyl]-2-phenylbenzanilide dihydrochloride] | – | 363 | – | 8.50 | – | – | –
Cl.O=C(Nc1ccc(C(=O)N2CCC(F)(F)/C(=C\CN3CCCC3)c3ccccc32)cc1)c1ccccc1-c1ccccc1 [Example 81, (Z)-4'-[[4,4-difluoro-5-[2-(1-pyrrolidinyl)ethylidene]-2,3,4,5-tetrahydro-1H-1-benzazepin-1-yl]carbonyl]-2-phenylbenzanilide hydrochloride] | – | 724 | – | 8.64 | – | – | –
CN(C)CC/C=C1\c2ccccc2N(C(=O)c2ccc(NC(=O)c3ccccc3-c3ccccc3)cc2)CCC1(F)F.Cl [Example 82, (E)-4'-[[4,4-difluoro-5-(3-dimethylaminopropylidene)-2,3,4,5-tetrahydro-1H-1-benzazepin-1-yl]carbonyl]-2-phenylbenzanilide hydrochloride] | – | 2630 | – | 8.13 | – | – | –
O=C(Nc1ccc(C(=O)N2CCC(F)(F)/C(=C\C(=O)N3CCC(N4CCCCC4)CC3)c3ccccc32)cc1)c1ccccc1-c1ccccc1 [Example 83, (Z)-4'-[[4,4-difluoro-5-[[(4-piperidinopiperidino)carbonyl]piperidyl)carbamoyl]methylene]-2,3,4,5-tetrahydro-1H-1-benzazepin-1-yl]carbonyl]-2-phenylbenzanilide hydrochloride] | – | 234 | – | 8.47 | – | – | –
CN1CCC(N(C)C(=O)/C=C2/c3ccccc3N(C(=O)c3ccc(NC(=O)c4ccccc4-c4ccccc4)cc3)CCC2(F)F)CC1 [Example 84, (Z)-4'-[[4,4-difluoro-5-[[N-methyl-N-(1-methyl-4-piperidyl)carbamoyl]methylene]-2,3,4,5-tetrahydro-1H-1-benzazepin-1-yl]carbonyl]-2-phenylbenzanilidehydrochloride] | – | 102 | – | – | – | – | –
CN(C)C1CCN(C(=O)/C=C2/c3ccccc3N(C(=O)c3ccc(NC(=O)c4cccc(Cl)c4)cc3)CCC2(F)F)CC1.Cl [Example 96, (Z)-3-chloro-4'-[[4,4-difluoro-5-[[(4-dimethylaminopiperidino)carbonyl]methylene]-2,3,4,5-tetrahydro-1H-1-benzazepin-1-yl]carbonyl]benzanilide hydrochloride] | – | 2000 | – | 8.13 | – | – | –
CCc1nccn1-c1ccccc1C(=O)Nc1ccc(C(=O)N2CCC(F)(F)/C(=C\C(N)=O)c3ccccc32)cc1 [Example 103, (Z)-4'-[(5-carbamoylmethylene-4,4-difluoro-2,3,4,5-tetrahydro-1H-1-benzazepin-1-yl]carbonyl]-2-(2-ethyl-1H-imidazol-1-yl)benzanilide] | – | 2000 | – | 6.35 | – | excellent in V1 selectivity | markedly stronger V1 receptor antagonism than that of OPC-21268
CCc1nccn1-c1ccccc1C(=O)Nc1ccc(C(=O)N2CCC(F)(F)/C(=C\C(=O)NC)c3ccccc32)cc1 [Example 104, (Z)-2-(2-ethyl-1H-imidazol-1-yl)-4'-[[4,4-difluoro-5-[(N-methylcarbamoyl)methylene]-2,3,4,5-tetrahydro-1H-1-benzazepin-1-yl]carbonyl]benzanilide] | – | 977 | – | 6.68 | – | excellent in V1 selectivity | markedly stronger V1 receptor antagonism than that of OPC-21268
CCc1nccn1-c1ccccc1C(=O)Nc1ccc(C(=O)N2CCC(F)(F)/C(=C\C(=O)NC3CC3)c3ccccc32)cc1 [Example 105, (Z)-4'-[[5-[(N-cyclopropylcarbamoyl)methylene]-4,4-difluoro-2,3,4,5-tetrahydro-1H-1-benzazepin-1-yl]carbonyl]-2-(2-ethyl-1H-imidazol-1-yl) benzanilide] | – | 339 | – | 6.81 | – | excellent in V1 selectivity | markedly stronger V1 receptor antagonism than that of OPC-21268
Cc1ccccc1CC(=O)Nc1ccc(C(=O)N2CCC(F)(F)/C(=C\C(=O)N3CCC(N(C)C)CC3)c3ccccc32)cc1 [Example 106, hydrochloride] | – | 1120 | – | 8.24 | – | – | –
